Laboratory results: the NIST ThermoML archive (doi:10.1021/je5010824)

How the values were obtained:
[1] = Liquid; for mass density: 298.15 K, 101.33 kPa, Vibrating tube method; for vapor or sublimation pressure: Ebulliometric method (Recirculating still)
[2] = refractive index (Na D-line) (dimensionless); conditions: 298.15 K; 101.33 kPa; Liquid; Standard Abbe refractometry

CCC(O)CO (centres undefined) [1,2-butanediol]
Conditions | mass density [kg/m3] | refractive index
[1] | 998.78 | –
[2] | – | 1.4378

[1]
Conditions | vapor or sublimation pressure [kPa]
392.06 K | 5.62
397.24 K | 7.21
402.31 K | 8.86
405.41 K | 10
406.54 K | 10.62
412.23 K | 13.56
417.66 K | 16.89
422.15 K | 20
422.48 K | 20.34
427.21 K | 24.45
432.29 K | 29.56
437.41 K | 35.54
440.83 K | 40
442.77 K | 41.92
447.52 K | 50.54
452.13 K | 58.86
457.24 K | 69.36
462.57 K | 81.92
466.64 K | 92.78
469.71 K | 101.3

CC(O)CO (centres undefined) [1,2-propanediol]
Conditions | mass density [kg/m3] | refractive index
[1] | 1031.9 | –
[2] | – | 1.432

[1]
Conditions | vapor or sublimation pressure [kPa]
398.25 K | 10
398.26 K | 10
414.88 K | 20
433.22 K | 40
460.69 K | 101.3

OCCO [1,2-ethanediol]
[1]
Conditions | vapor or sublimation pressure [kPa]
406.1 K | 10
423.29 K | 20
442.17 K | 40
470.4 K | 101.3

Conditions | refractive index
[2] | 1.431
